In ChEMBL document CHEMBL3272271, “Folate antagonists. 13. 2,4-Diamino-6-](alpha,alpha,alpha-trifluoro-m-tolyl)thio]quinazoline and related 2,4-diamino-6-[(phenyl- and naphthyl)thio]quinazolines, a unique class of antimetabolites with extraordinary antimalarial and antibacterial effects” (J Med Chem, 1978):
Active and inactive are the calls of the source. The calls are words filed in the database; no cut-off is given here.

Columns and labels:
[1] = system: Plasmodium berghei; assay: Antimalarial activity against cycloguanil-resistant Plasmodium berghei assessed as drug resistance; format: functional, organism-based
[2] = system: Plasmodium berghei; assay: Antimalarial activity against Plasmodium berghei infected in mouse assessed as increase in mean survival days of host at 10 mg/kg, sc administered 72 hrs after infection relative to control; format: functional; details: route subcutaneous
[3] = system: Plasmodium gallinaceum; assay: Antimalarial activity against trophozoite-induced Plasmodium gallinaceum infected in white leghorn chicken assessed as disease cure from parasite infection at 100 mg/kg, sc administered 72 hrs after infection; format: functional, organism-based; design: dose 100 mg/kg
[4] = system: Plasmodium gallinaceum; assay: Antimalarial activity against trophozoite-induced Plasmodium gallinaceum infected in white leghorn chicken assessed as increase in mean survival days of host at 100 mg/kg, sc administered 72 hrs after infection relative to control; format: functional; details: route subcutaneous
[5] = system: Plasmodium berghei; assay: Antimalarial activity against Plasmodium berghei infected in mouse assessed as disease cure from parasite infection at 320 mg/kg, sc administered 72 hrs after infection; format: functional, organism-based; design: dose 320 mg/kg
[6] = system: Plasmodium berghei; assay: Antimalarial activity against Plasmodium berghei infected in mouse assessed as disease cure from parasite infection at 20 mg/kg, sc administered 72 hrs after infection; format: functional, organism-based; design: dose 20 mg/kg
[7] = system: Plasmodium berghei; assay: Antimalarial activity against Plasmodium berghei infected in mouse assessed as disease cure from parasite infection at 80 mg/kg, sc administered 72 hrs after infection; format: functional, organism-based; design: dose 80 mg/kg
[8] = system: Plasmodium berghei; assay: Antimalarial activity against Plasmodium berghei infected in mouse assessed as disease cure from parasite infection at 40 mg/kg, sc administered 72 hrs after infection; format: functional, organism-based; design: dose 40 mg/kg
[9] = system: Plasmodium berghei; assay: Antimalarial activity against Plasmodium berghei infected in mouse assessed as increase in mean survival days of host at 2.5 mg/kg, sc administered 72 hrs after infection relative to control; format: functional; details: route subcutaneous
[10] = system: Plasmodium berghei; assay: Antimalarial activity against Plasmodium berghei infected in mouse assessed as increase in mean survival days of host at 5 mg/kg, sc administered 72 hrs after infection relative to control; format: functional; details: route subcutaneous
[11] = system: Plasmodium berghei; assay: Antimalarial activity against Plasmodium berghei infected in mouse assessed as increase in mean survival days of host at 20 mg/kg, sc administered 72 hrs after infection relative to control; format: functional; details: route subcutaneous
[12] = system: Plasmodium berghei; assay: Antimalarial activity against Plasmodium berghei infected in mouse assessed as disease cure from parasite infection at 10 mg/kg, sc administered 72 hrs after infection; format: functional, organism-based; design: dose 10 mg/kg
[13] = system: Plasmodium berghei; assay: Antimalarial activity against Plasmodium berghei infected in mouse assessed as increase in mean survival days of host at 1.25 mg/kg, sc administered 72 hrs after infection relative to control; format: functional; details: route subcutaneous
[14] = system: Plasmodium berghei; assay: Antimalarial activity against chloroquine-resistant Plasmodium berghei assessed as drug resistance; format: functional, organism-based
[15] = system: Plasmodium berghei; assay: Antimalarial activity against Plasmodium berghei infected in mouse assessed as disease cure from parasite infection at 640 mg/kg, sc administered 72 hrs after infection; format: functional, organism-based; design: dose 640 mg/kg
[16] = system: Plasmodium berghei; assay: Antimalarial activity against Plasmodium berghei infected in mouse assessed as disease cure from parasite infection at 160 mg/kg, sc administered 72 hrs after infection; format: functional, organism-based; design: dose 160 mg/kg
[17] = system: Plasmodium gallinaceum; assay: Antimalarial activity against sporozoite-induced Plasmodium gallinaceum infected in white leghorn chicken assessed as disease cure from parasite infection at 7.5 mg/kg, sc administered 72 hrs after infection; format: functional, organism-based; design: dose 7.5 mg/kg
[18] = system: Plasmodium gallinaceum; assay: Antimalarial activity against trophozoite-induced Plasmodium gallinaceum infected in white leghorn chicken assessed as disease cure from parasite infection at 40 mg/kg, sc administered 72 hrs after infection; format: functional, organism-based; design: dose 40 mg/kg
[19] = system: Plasmodium gallinaceum; assay: Antimalarial activity against sporozoite-induced Plasmodium gallinaceum infected in white leghorn chicken assessed as disease cure from parasite infection at 480 mg/kg, sc administered 72 hrs after infection; format: functional, organism-based; design: dose 480 mg/kg
[20] = system: Plasmodium gallinaceum; assay: Antimalarial activity against sporozoite-induced Plasmodium gallinaceum infected in white leghorn chicken assessed as disease cure from parasite infection at 120 mg/kg, sc administered 72 hrs after infection; format: functional, organism-based; design: dose 120 mg/kg
[21] = system: Plasmodium gallinaceum; assay: Antimalarial activity against sporozoite-induced Plasmodium gallinaceum infected in white leghorn chicken assessed as disease cure from parasite infection at 240 mg/kg, sc administered 72 hrs after infection; format: functional, organism-based; design: dose 240 mg/kg
[22] = system: Plasmodium gallinaceum; assay: Antimalarial activity against sporozoite-induced Plasmodium gallinaceum infected in white leghorn chicken assessed as disease cure from parasite infection at 15 mg/kg, sc administered 72 hrs after infection; format: functional, organism-based; design: dose 15 mg/kg
[23] = system: Plasmodium gallinaceum; assay: Antimalarial activity against trophozoite-induced Plasmodium gallinaceum infected in white leghorn chicken assessed as disease cure from parasite infection at 320 mg/kg, sc administered 72 hrs after infection; format: functional, organism-based; design: dose 320 mg/kg
[24] = system: Plasmodium gallinaceum; assay: Antimalarial activity against trophozoite-induced Plasmodium gallinaceum infected in white leghorn chicken assessed as disease cure from parasite infection at 160 mg/kg, sc administered 72 hrs after infection; format: functional, organism-based; design: dose 160 mg/kg
[25] = system: Plasmodium gallinaceum; assay: Antimalarial activity against sporozoite-induced Plasmodium gallinaceum infected in white leghorn chicken assessed as disease cure from parasite infection at 60 mg/kg, sc administered 72 hrs after infection; format: functional, organism-based; design: dose 60 mg/kg
[26] = system: Plasmodium gallinaceum; assay: Antimalarial activity against sporozoite-induced Plasmodium gallinaceum infected in white leghorn chicken assessed as disease cure from parasite infection at 30 mg/kg, sc administered 72 hrs after infection; format: functional, organism-based; design: dose 30 mg/kg
[27] = system: Plasmodium gallinaceum; assay: Antimalarial activity against trophozoite-induced Plasmodium gallinaceum infected in white leghorn chicken assessed as disease cure from parasite infection at 80 mg/kg, sc administered 72 hrs after infection; format: functional, organism-based; design: dose 80 mg/kg

For `Nc1nc(N)c2cc(Sc3ccc(Cl)c(Cl)c3)ccc2n1`, the Activity [1] was “Active”, the MST [2] was 11.7 days and the Activity [3] was “Active”. The MST [4] was 20.8 days, the Activity [5] was “Active” and the Activity [6] was “Active”. The Activity [7] was “Active”, the Activity [8] was “Active” and the MST [9] was 5.9 days. For the same compound, the MST [10] was 8.5 days, the MST [11] was 15.9 days and the Activity [12] was “Active”. For the same compound, the MST [13] was 0.9 days, the Activity [14] was “inactive” and the Activity [15] was “Active”. For the same compound, the Activity [16] was “Active”.
`Nc1nc(N)c2cc(NCc3ccc(Cl)c(Cl)c3)ccc2n1` was tested, and the Activity [17] was “Active”, the Activity [18] was “Active” and the Activity [19] was “Active”. For the same compound, the Activity [20] was “Active”, the Activity [21] was “Active” and the Activity [22] was “Active”. For the same compound, the Activity [5] was “Active”, the Activity [23] was “Active” and the Activity [24] was “Active”. The Activity [25] was “Active”, the Activity [26] was “Active” and the Activity [15] was “Active”. For the same compound, the Activity [16] was “Active” and the Activity [27] was “Active”.
